Among the data in patent publication US9090615B2, “Adamantyl derivatives as cannabinoid receptor 2 agonists” (Hoffmann-La Roche Inc., priority 2012, dated 2015) are EC50 values, retold here.

In this assay the target is T1, human CB2 receptors (Homo sapiens, UniProt P34972).
T1 construct: expressed in transfected cells; host or cells: CHO cells
Kind of assay: functional cAMP assay, CHO cells expressing human CB2. Format: cell-based. On the procedure:
The growth medium was exchanged with Krebs Ringer Bicarbonate buffer with 1 mM IBMX and incubated at 30° C. for 30 min. Compounds were added to a final assay volume of 100 μl and incubated for 30 min at 30° C. […] The time-resolved energy transfer is measured by a TRF reader (Evotec Technologies GmbH), equipped with a ND:YAG laser as excitation source. The plate is measured twice with the excitation at 355 nm and at the emission with a delay of 100 ns and a gate of 100 ns, total exposure time 10 s at 730 (bandwidth 30 nm) or 645 nm (bandwidth 75 nm), respectively.
EC50 values were determined using Activity Base analysis (ID Business Solution, Limited).
(cAMP levels reflect the balance of adenylyl cyclase and phosphodiesterase activity.)

Where [1] appears, read: CHO cells expressing human CB2, read-out: Ec50:CB2 - hu cAMP.

Read-outs that look alike come from different tables or passages of the source.

T1 sequence (P34972 whole entry): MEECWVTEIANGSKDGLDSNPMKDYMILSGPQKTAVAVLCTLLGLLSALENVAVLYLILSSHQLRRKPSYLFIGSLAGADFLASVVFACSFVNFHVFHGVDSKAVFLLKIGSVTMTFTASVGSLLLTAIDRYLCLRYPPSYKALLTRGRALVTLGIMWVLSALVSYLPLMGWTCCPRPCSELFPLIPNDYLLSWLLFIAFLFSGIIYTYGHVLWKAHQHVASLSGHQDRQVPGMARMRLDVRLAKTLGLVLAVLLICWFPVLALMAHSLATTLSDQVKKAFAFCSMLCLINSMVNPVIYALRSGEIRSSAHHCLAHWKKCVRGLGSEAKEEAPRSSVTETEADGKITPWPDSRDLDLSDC

As a reminder, the EC50 is the concentration needed to bring the measured effect to its halfway point. For the compound `O=C(N1CCCc2ccccc21)C12CC3CC(CC(C3)C1)C2` [Example 2, Adamantan-1-yl-(3,4-dihydro-2H-quinolin-1-yl)-methanone], the EC50 under setting [1] worked out at 71.6 nM.

Regarding `O=C(N1CCc2ccccc21)C12CC3CC(CC(C3)C1)C2` [Example 11, Adamantan-1-yl-(2,3-dihydro-indol-1-yl)-methanone], the EC50 under setting [1] was 23.2 nM.

Consider `CCOC1CCN(C(=O)C23CC4CC(CC(C4)C2)C3)c2ccccc21` (stereo not drawn) [Example 12, Adamantan-1-yl-(4-ethoxy-3,4-dihydro-2H-quinolin-1-yl)-methanone], for which the EC50 worked out at 18.6 nM.

The compound `O=C(N1CCc2ccc(C(F)(F)F)cc21)C12CC3CC(CC(C3)C1)C2` [Example 17, Adamantan-1-yl-(6-trifluoromethyl-2,3-dihydro-indol-1-yl)-methanone] registered a concentration for a half-maximal effect (EC50) of 14.6 nM.

Take `O=C(N1CCc2cc(F)ccc21)C12CC3CC(CC(C3)C1)C2` [Example 18, Adamantan-1-yl-(5-fluoro-2,3-dihydro-indol-1-yl)-methanone]: the EC50 under setting [1] is 4.6 nM.

As to `O=C(N1Cc2ccccc2C1)C12CC3CC(CC(C3)C1)C2` [Example 21, Adamantan-1-yl-(1,3-dihydro-isoindol-2-yl)-methanone], the EC50 under setting [1] was found to be 19.9 nM.

Consider `Cc1cccc2c1N(C(=O)C13CC4CC(CC(C4)C1)C3)CC2` [Example 28, Adamantan-1-yl-(7-methyl-2,3-dihydro-indol-1-yl)-methanone], for which the EC50 stood at 55.7 nM.

`Cc1cccc2c1CCN2C(=O)C12CC3CC(CC(C3)C1)C2` [Example 30, Adamantan-1-yl-(4-methyl-2,3-dihydro-indol-1-yl)-methanone]: under setting [1], the EC50 stood at 4.3 nM.

`COCCOC1CCN(C(=O)C23CC4CC(CC(C4)C2)C3)c2ccccc21` (stereo not drawn) [Example 33, Adamantan-1-yl-[4-(2-methoxy-ethoxy)-3,4-dihydro-2H-quinolin-1-yl]-methanone]: the EC50 was 21.3 nM.

`COC1CCN(C(=O)C23CC4CC(CC(C4)C2)C3)c2ccccc21` (stereo not drawn) [Example 36, Adamantan-1-yl-(4-methoxy-3,4-dihydro-2H-quinolin-1-yl)-methanone]: the EC50 under setting [1] is 27.2 nM.

For the compound `O=C(N1CCc2ccccc21)C12CC3CC(CC(O)(C3)C1)C2` [Example 41, (2,3-Dihydro-indol-1-yl)-(3-hydroxy-adamantan-1-yl)-methanone], under setting [1], the EC50 came out at 492 nM.

Consider `O=C(NC12CC3CC(CC(C3)C1)C2)N1Cc2ccccc2C1` [Example 42, 1,3-Dihydro-isoindole-2-carboxylic acid adamantan-1-ylamide], for which the EC50 under setting [1] came to 22.1 nM.
